These results are taken from US8183263B2 (priority 2007, dated 2012).

The structures appear in SMILES notation.

The assay relates to HCV replicon. As to the kind of experiment: HCV replicon replication assay (NPT level by captured ELISA). It is filed as cell-based. Particulars: Hepatitis C virus, 72 h; Huh-7 HCV replicon-containing cells, three days incubation; read-out: Activity (inhibition of HCV replicon replication). As to the method:
Compounds claimed herein are tested for the ability to inhibit viral replication of the Hepatitis C replicon in cultured cells in which the HCV replicon construct has been incorporated. The HCV replicon system was described by Bartenschlager, et. al (Science, 285, pp. 110-113 (1999)). The replicon system is predictive of in vivo anti-HCV activity; compounds that are active in humans uniformly evidence activity in the replicon assay.
In this assay HCV replicon containing cells are treated with different concentrations of the test compound to ascertain the ability of the test compound to suppress replication of the HCV replicon. As a positive control, HCV replicon-containing cells are treated with different concentrations of interferon alpha, a known inhibitor of HCV replication. The replicon assay system includes Neomycin Phosphotransferase (NPT) as a component of the replicon itself in order to detect the transcription of replicon gene products in the host cell. Cells in which the HCV replicon is actively replicating have high levels of NPT; the level of NPT is proportional to HCV replication. […] The NPT level of each sample is measured using a captured ELISA.
A protocol for testing compounds for the ability to inhibit viral replication of the Hepatitis C replicon cultured cells in which the replicon construct has been incorporated, follows.
The HCV replicon contains, 5′-3′, the HCV-IRES, the neomycin phosphotransferase (neo) gene, the IRES of encephalomyocarditis virus, which directs translation of HCV sequences NS3 to NS5B, and the 3′-NTR. The sequence of the HCV replicon has been deposited in GenBank (Accession no. AJ242652).
The replicon is transfected into Huh-7 cells using standard methods such as electroporation.
The equipment and materials include, but are not limited to, Huh-7 HCV replicon-containing cells, maintenance media (DMEM (Dulbecco's modified Eagle media) supplemented with 10% FBS, L-glutamine, non-essential amino acids, penicillin (100 units/ml), streptomycin (100 micrograms/ml), and 500 micrograms/ml of Geneticin (G418), screening media (DMEM supplemented with 10% FBS, L-glutamine, non-essential amino acids, penicillin (100 units/ml) and streptomycin (100 micrograms/ml)), 96 well tissue culture plates (flat bottom), 96 well plates (U bottom for drug dilution), Interferon alpha for positive control, fixation reagent (such as methanol: acetone), primary antibody (rabbit anti-NPTII), secondary antibody: Eu—N1 1, and enhancement solution.
HCV replicon-containing cells are rinsed with once PBS once; 2 mls of trypsin are then added. Cells are incubated at 37° C. in a 5% CO2 incubator for 3-5 minutes. 10 mls of complete medium is added to stop the reaction. Cells are blown gently, put into a 15 ml tube, and spun at 1200 rpm for four minutes. The trypsin/medium solution is removed and 5 mls of medium (500 ml DMEM (high glucose)) from BRL catalog #12430-054; 50 mls 10% FBS, 5% Geneticin G418 (50 mg/ml, BRL catalog #10131-035), 5 ml MEM non-essential amino acids (100×BRL #11140-050) and 5 ml pen-strep (BRL #15140-148) is added. The cells and media are mixed carefully
Cells are plated with screening medium (500 ml DMEM (BRL #21063-029), 50 ml FBS (BRL #10082-147) and 5 ml MEM non-essential amino acid (BRL #11140-050) at 6000-7500 cells/100 μl/well of 96 well plate (6-7.5×10^5 cells/10 ml/plate). Plates are placed into 37° C. 5% CO2 incubator overnight.
The following morning, drugs (test compounds or interferon alpha) are diluted in 96 well U bottom plates with media or DMSO/media, depending on the final concentration chosen for screening. Generally for 6 concentrations of each test compounds ranging from 10 micromolar to 0.03 micromolar are applied. 100 μl of the test compound dilution is placed in wells of the 96 well plate containing the HCV replicon cells. Media without drug is added to some wells as a negative controls. DMSO is known to affect cell growth. […]
On the technique in general: A replicon is a self-replicating genome or part of one, used to study replication in cells.
With `Cc1ccc(Nc2nc(-c3ccc(F)cc3)cs2)cc1OCC1CCCCC1` [Cmp 42, N-(3-(cyclohexylmethoxy)-4-methylphenyl)-4-(4-fluorophenyl)thiazol-2-amine], the EC50 was under 1000 nM. With `C/C=N/N(c1ccc(OCCCCCCCC)cc1)c1nc(-c2cccnc2)cs1` [Cmp 34, (E)-2-(2-ethylidene-1-(4-(octyloxy)phenyl)hydrazinyl)-4-(pyridin-3-yl)thiazole], the EC50 is under 1000 nM. With `CCCCCCCCOc1ccc(Nc2nc(-c3ccc(F)nc3)c(F)s2)cc1C(F)(F)F` [Cmp 175, 5-fluoro-4-(6-fluoropyridin-3-yl)-N-(4-(octyloxy)-3-(trifluoromethyl)phenyl)thiazol-2-amine] the figure was under 1000 nM; with `CCCOCCC#Cc1ccc(Nc2nc(-c3cccnc3)c(F)s2)cc1C(F)(F)F` [Cmp 222, 5-fluoro-N-(4-(4-propoxybut-1-ynyl)-3-(trifluoromethyl)phenyl)-4-(pyridin-3-yl)thiazol-2-amine], under 1000 nM. With `CC(=O)c1cc(Nc2nc(-c3cccnc3)cs2)ccc1Oc1ccccc1` [Cmp 85, 1-(2-phenoxy-5-(4-(pyridin-3-yl)thiazol-2-ylamino)phenyl)ethanone] the figure was under 1000 nM; with `Cc1ccc(CCCCOc2ccc(Nc3nc(-c4cccnc4)c(Cl)s3)cc2C(F)(F)F)cc1` [Cmp 109, 5-chloro-4-(pyridin-3-yl)-N-(4-(4-p-tolylbutoxy)-3-(trifluoromethyl)phenyl)thiazol-2-amine], under 1000 nM. With `CCCCCCCCc1ccc(Nc2nc(-c3ccc(OC(=O)[C@@H](N)C(C)C)nc3)cs2)cc1C(F)(F)F` [Cmp 135, (S)-5-(2-(4-octyl-3-(trifluoromethyl)phenylamino)thiazol-4-yl)pyridin-2-yl 2-amino-3-methylbutanoate] the figure was 1000 to 10000 nM; with `CCCCCCCCOc1ccc(Nc2nc(-c3cc(F)sc3C(N)=O)cs2)cc1C(F)(F)F` [Cmp 184, 5-fluoro-3-(2-(4-(octyloxy)-3-(trifluoromethyl)phenylamino)thiazol-4-yl)thiophene-2-carboxamide], under 1000 nM; with `CCCCCCCC(=O)c1ccc(Nc2nc(-c3cccnc3)cs2)cc1` [Cmp 111, 1-(4-(4-(pyridin-3-yl)thiazol-2-ylamino)phenyl)octan-1-one], under 1000 nM. As for `CCCCCCCCOc1ccc(Nc2nc(-c3ccc4nncn4c3)c(F)s2)cc1C(F)(F)F` [Cmp 214, 4-([1,2,4]triazolo[4,3-a]pyridin-6-yl)-5-fluoro-N-(4-(octyloxy)-3-(trifluoromethyl)phenyl)thiazol-2-amine], the EC50 was under 1000 nM. With `Fc1sc(Nc2ccc(CCCCCCCCCl)c(C(F)(F)F)c2)nc1-c1cccnc1` [Cmp 231, N-(4-(8-chlorooctyl)-3-(trifluoromethyl)phenyl)-5-fluoro-4-(pyridin-3-yl)thiazol-2-amine] the figure was under 1000 nM; with `CCCCCCCCOc1ccc(Nc2nc(-c3cccnc3)cs2)cc1C(N)=O` [Cmp 156, 2-(octyloxy)-5-(4-(pyridin-3-yl)thiazol-2-ylamino)benzamide], under 1000 nM. Turning to `Fc1ccc(C#CCCOc2ccc(Nc3nc(-c4cccnc4)c(F)s3)cc2C(F)(F)F)cc1` [Cmp 163, 5-fluoro-N-(4-(4-(4-fluorophenyl)but-3-ynyloxy)-3-(trifluoromethyl)phenyl)-4-(pyridin-3-yl)thiazol-2-amine], the EC50 was under 1000 nM. With `COc1ncc(-c2nc(Nc3ccc(Oc4ccccc4)c(C(F)(F)F)c3)sc2F)cn1` [Cmp 95, 5-fluoro-4-(2-methoxypyrimidin-5-yl)-N-(4-phenoxy-3-(trifluoromethyl)phenyl)thiazol-2-amine] the figure was 1000 to 10000 nM. With `CCCCCOc1cc(Nc2nc(-c3cccnc3)c(F)s2)ccc1C#N` [Cmp 30, -(5-fluoro-4-(pyridin-3-yl)thiazol-2-ylamino)-2-(pentyloxy)benzonitrile] the figure was under 1000 nM; with `CCCCCCCCc1ccc(Nc2nc(-c3cccnc3)c(F)s2)cc1C(F)(F)F` [Cmp 35, 5-fluoro-N-(4-octyl-3-(trifluoromethyl)phenyl)-4-(pyridin-3-yl)thiazol-2-amine], under 1000 nM. With `CCCCCCCCOc1ccc(Nc2nc(-c3cccnc3)c(F)s2)cc1` [Cmp 141, 5-fluoro-N-(4-(octyloxy)phenyl)-4-(pyridin-3-yl)thiazol-2-amine] the figure was under 1000 nM; with `CCCCCCCCOc1cc(Nc2nc(-c3cccnc3)c(F)s2)ccc1C` [Cmp 28, 5-fluoro-N-(4-methyl-3-(octyloxy)phenyl)-4-(pyridin-3-yl)thiazol-2-amine], under 1000 nM.

Regarding `Fc1sc(Nc2ccc(CCCCCOC3CCCC3)c(C(F)(F)F)c2)nc1-c1cccnc1` [Cmp 230, N-(4-(5-(cyclopentyloxy)pentyl)-3-(trifluoromethyl)phenyl)-5-fluoro-4-(pyridin-3-yl)thiazol-2-amine], the EC50 was under 1000 nM. In the case of `CCCCCCCCOc1ccc(Nc2nc(-c3cncc(C#N)c3)c(F)s2)cc1C(F)(F)F` [Cmp 181, 5-(5-fluoro-2-(4-(octyloxy)-3-(trifluoromethyl)phenylamino)thiazol-4-yl)nicotinonitrile], the EC50 is under 1000 nM. Take `FC(F)(F)c1cc(Nc2nc(-c3cccnc3)cs2)ccc1CCCCOc1ccccc1` [Cmp 132]: the EC50 was under 1000 nM.

On to `Fc1sc(Nc2ccc(OCCCCC3CCCC3)c(C(F)(F)F)c2)nc1-c1cccnc1` [Cmp 190, N-(4-(4-cyclopentylbutoxy)-3-(trifluoromethyl)phenyl)-5-fluoro-4-(pyridin-3-yl)thiazol-2-amine], for which the EC50 was under 1000 nM. With `CCCCCCCCOc1cc(Nc2nc(-c3cnc(OC)nc3)cs2)ccc1C` [Cmp 46, 4-(2-methoxypyrimidin-5-yl)-N-(4-methyl-3-(octyloxy)phenyl)thiazol-2-amine] the figure was under 1000 nM; with `CCCCCCCCc1cc2cc(Nc3nc(-c4cccnc4)c(F)s3)ccc2o1` [Cmp 128, 5-fluoro-N-(2-octylbenzofuran-5-yl)-4-(pyridin-3-yl)thiazol-2-amine], under 1000 nM; with `CC/C=N/N(c1ccc(OCCCCCCCC)cc1)c1nc(-c2cccnc2)cs1` [Cmp 32, (E)-2-(1-(4-(octyloxy)phenyl)-2-propylidenehydrazinyl)-4-(pyridin-3-yl)thiazole], under 1000 nM. With `CCCCCCc1ccc(Nc2nc(-c3cccnc3)cs2)cc1C(F)(F)F` [Cmp 105, N-(4-hexyl-3-(trifluoromethyl)phenyl)-4-(pyridin-3-yl)thiazol-2-amine] the figure was under 1000 nM; with `CCCCCCCCc1oc2ccc(Nc3nc(-c4cccnc4)c(F)s3)cc2c1Cl` [Cmp 189, N-(3-chloro-2-octylbenzofuran-5-yl)-5-fluoro-4-(pyridin-3-yl)thiazol-2-amine], under 1000 nM; with `COc1ncc(-c2csc(Nc3ccc(C)c(OCCOc4ccccc4)c3)n2)cn1` [Cmp 40, 4-(2-methoxypyrimidin-5-yl)-N-(4-methyl-3-(2-phenoxyethoxy)phenyl)thiazol-2-amine], under 1000 nM. With `CCCOCCCCCc1ccc(Nc2nc(-c3cccnc3)c(F)s2)cc1C(F)(F)F` [Cmp 192, 5-fluoro-N-(4-(5-propoxypentyl)-3-(trifluoromethyl)phenyl)-4-(pyridin-3-yl)thiazol-2-amine] the figure was under 1000 nM.

Take `FC(F)(F)c1ccc(Nc2nc(-c3cccnc3)cs2)cc1Oc1ccccc1` [Cmp 102]: the EC50 lay in the range of 1000 to 10000 nM. With `CCCCCCCCc1c(F)cc(Nc2nc(-c3cccnc3)cs2)cc1F` [Cmp 94, N-(3,5-difluoro-4-octylphenyl)-4-(pyridin-3-yl)thiazol-2-amine], the EC50 is under 1000 nM.
